According to patent publication US20150329501A1, “SUBSTITUTED [1,2,4]TRIAZOLE COMPOUNDS AND THEIR USE AS FUNGICIDES” (BASF SE, priority 2012, published 2015):

How the values were obtained:
Septoria tritici = assay: Microtest: activity against leaf blotch on wheat caused by Septoria tritici (Septtr) (M1, M6, M2-3, CM4); type: cell-based; settings: 405 nm, 7 days after inoculation; for Growth (%) at 0.5 ppm Septtr: relative growth vs active compound-free control (100%), microtiter plate; for relative growth in % of the pathogen: 31 ppm, compound-free control = 100%
Botrytis cinerea [1] = assay: Microtest: activity against the grey mold Botrytis cinerea in the microtiterplate test (Botrci) (M2, M4, M2-1, CM3); type: cell-based; settings: relative growth vs active compound-free control (100%), microtiter plate, 405 nm, 7 days after inoculation
Pyricularia oryzae = type: cell-based; settings: relative growth vs active compound-free control (100%), microtiter plate, 405 nm, 7 days after inoculation
Phytophthora infestans = type: cell-based; settings: relative growth vs active compound-free control (100%), microtiter plate, 405 nm, 7 days after inoculation
Phakopsora pachyrhizi = assay: Green house: curative control of soy bean rust on soy beans caused by Phakopsora pachyrhizi (Phakpa K2) (G2-3); type: in vivo; settings: 125 ppm, sprayed after inoculation (curative), untreated plants 90% infected
Botrytis cinerea [2] = assay: Green house: preventative fungicidal control of Botrytis cinerea on leaves of green pepper (Botrci P1) (G2-1); type: in vivo; settings: 125 ppm, sprayed the day before inoculation, untreated plants 90% infected
Protocol: Young seedlings of green pepper were grown in pots to the 4 to 5 leaf stage. […] The next day the plants were inoculated with an aqueous biomalt solution containing the spore suspension of Botrytis cinerea.

Alternaria solani = assay: Green house: preventative fungicidal control of early blight on tomatoes (Alternaria solani) (Alteso P1) (G2, G2-2); settings: 125 ppm, sprayed the day before inoculation; tomato; untreated plants 70% infected
Protocol: Water was then added to total volume of 100 ml. This stock solution was diluted with the described solvent-emulsifier-water mixture to the given concentration.
Young seedlings of tomato plants were grown in pots. These plants were sprayed to run-off with an aqueous suspension, containing the concentration of active ingredient or mixture mentioned in the table below. The next day, the treated plants were inoculated with an aqueous suspension of Alternaria solani. Then the trial plants were immediately transferred to a humid chamber. After 5 days at 18 to 20° C. and a relative humidity close to 100%, the extent of fungal attack on the leaves was visually assessed as % diseased leaf area.

Compound: CC(C)(C)C(O)(Cn1cncn1)c1cccc(Oc2ccccc2)c1 (stereo not shown)
- Growth (%) at 0.5 ppm Septtr (Septoria tritici): 83%
- Growth (%) at 31 ppm Botrci (Botrytis cinerea [1]): 76%
- Growth (%) at 8 ppm Pyrior (Pyricularia oryzae): 89%
- Growth (%) at 31 ppm Phytin (Phytophthora infestans): 80%

Compound: CC(C)(C)C(O)(Cn1cncn1)c1cc(Cl)cc(Oc2ccccc2)c1 (stereo not shown)
- Growth (%) at 8 ppm Pyrior (Pyricularia oryzae): 69%

Compound: CC(C)(C)C(O)(Cn1cncn1)c1cccc(Oc2ccc(Cl)cc2)c1 (stereo not shown) [Compound I-24]
- Growth (%) at 0.5 ppm Septtr (Septoria tritici): 13%
- Growth (%) at 31 ppm Botrci (Botrytis cinerea [1]): 9%
- Growth (%) at 8 ppm Pyrior (Pyricularia oryzae): 0%
- Growth (%) at 31 ppm Phytin (Phytophthora infestans): 42%

Compound: CC(C)(C)C(O)(Cn1cncn1)c1cc(Cl)cc(-c2ccc(Cl)cc2)c1 (stereo not shown) [Compound I-27]
- infection (% diseased leaf area) (Phakopsora pachyrhizi): 7%

Compound: OC(Cn1cncn1)(c1cccc(-c2ccc(Cl)cc2)c1)C(F)(F)F (stereo not shown) [Compound I-29]
- relative growth in % of the pathogen (Septoria tritici): 0%
- infection (% diseased leaf area) (Botrytis cinerea [2]): 1%
- infection (% diseased leaf area) (Phakopsora pachyrhizi): 0%
- infection (% diseased leaf area) (Alternaria solani): 10%

Compound: C#CCC(O)(Cn1cncn1)c1cccc(-c2ccc(Cl)cc2)c1 (stereo not shown) [Compound I-30]
- relative growth in % of the pathogen (Septoria tritici): 0%
- infection (% diseased leaf area) (Botrytis cinerea [2]): 1%
- infection (% diseased leaf area) (Phakopsora pachyrhizi): 1%
- infection (% diseased leaf area) (Alternaria solani): 1%

Compound: CC(C)(C)C(O)(Cn1cncn1)c1cc(Cl)cc(Oc2ccc(Cl)cc2)c1 (stereo not shown) [Compound I-31]
- Growth (%) at 8 ppm Pyrior (Pyricularia oryzae): 0%
